Experimental data: patent publication US11865125B2, “APKC inhibitors and methods of treating a neurodegenerative disease or disorder” (UNIVERSITY OF SOUTH FLORIDA, priority 2016, dated 2024)
Entries after “also recorded” stand apart in the source; their conditions may differ.

Key:
phospho-thr-231-tau = phospho-thr-231-tau levels in LA1-5s neuroblastoma cells; type: cell-based, human; details: LA1-5s cells
Procedure: Shown here are Mean±SEM (N=4) values relative to the mean initial basal or insulin-stimulated level of indicated immunoreactive protein/peptide. Asterisks: *, P<0.05; **, P<0.01; ***, P<0.001 (ANOVA).
Western Analyses. As described, Western analyses were conducted with rabbit antisera or mouse monoclonal antibodies (mMab), using: anti-aPKC (Santa Cruz Biotechnologies, Santa Cruz, CA); anti-phospho-threonine-560/555-PKC-ζ/λ/ι (Invitrogen, Carlsbad, CA); anti-p-serine-256-FoxO1 and anti-FoxO1 (Abnova, Walnut, CA); anti-Akt (mMab), anti-phospho-serine-473-Akt, anti-phospho-serine-9-GSK3P anti-GSK313, anti-phospho-serine-253-FoxO3a, anti-FoxO3a, anti-phospho-serine-256-FoxO1, anti-phospho-serine-193-FoxO4; anti-FoxO1, anti-phospho-serine-2448-mTOR, anti-mTOR, anti-β-amyloid (anti-5-10 kDa-Aβ1-40/42) and anti-amyloid precursor protein (anti-120 kDa-APP) (Cell Signaling Technologies, Danvers, MA); and anti-phospho-serine-202-tau, anti-phospho-threonine-231-tau (Gene Tex, Irvine, CA). Samples from experimental groups were compared on the same blots, and routinely checked with loading controls. Note that: insulin-sensitive 70 kDa aPKC is largely PKC-ζ in mouse brain and orthologous PKC-ι (98% aa homology) in monkey and other primate brains; brain PKC-ζ exists largely as a 50 kDa moiety that, lacking a regulatory domain, is constitutively-active and unresponsive to insulin.

β-secretase (BACE1) = experiment: brain β-secretase activity (BACE1) in mice; type: in vivo, mouse
Excerpt: Mouse Studies. Brain samples were obtained from normal and insulin-resistant mice and monkeys used previously, and includes mice originally used in studies of insulin signaling and resistance in liver: (a) 4-6 month old C57Bl/6 mice used in studies of high-fat-feeding [USF Vivarium] [6]; 4-6 month-old male C57Bl/6 ob/ob and lean ob+ mice (Jackson Labs, Bar Harbor, Maine); and (c) 10-12 month-old C57Bl/6 Het-MλKO mice [USF Vivarium] [8]. Males and females were comparably present in experimental groups, and sex didn't appreciably alter combined findings. Hepatic alterations, clinical characteristics and ameliorating effects of liver-selective aPKC inhibitors were reported previously. […] Where indicated, Het-MλKO were injected subcutaneously (SC) once daily for 8 days with saline or 1H-imidazole-4-carboxamide,5-amino]-(2,3-dihydroxy-4-[(phosphono-oxy)methyl]cyclopentane-[1R-(1a,2b,3b,4a)] (ICAPP) 0.4 mg/kg body weight) in saline, to inhibit hepatic aPKC, and thus diminish aPKC-dependent expression of hepatic gluconeogenic and lipogenic enzymes, and thereby reduce serum insulin levels to near-normal. Where indicated normal mice were given a single SC injection of saline or saline containing 1.5 mg/kg ICAPP to follow time-related alterations in brain signaling factors. Where indicated, mice were treated intraperitoneally (IP) with insulin (1 U/kg body weight) or vehicle 15-min before euthanization by administration of Xylazine/Ketamine, followed by whole body perfusion with phosphate-buffered saline and rapid removal of brain and other tissues.
Tissue Preparations. As described, mouse brains were hemisected sagittally, and one-half was frozen in liquid N2, stored at −80° C., and samples thereof were homogenized in buffer containing 0.25M sucrose, 20 mM Tris/HCl (pH, 7.5), 2 mmol/l EGTA, 2 mM EDTA, 1 mM phenlysulfonoylfluoride (PMSF), 20 μg/ml leupeptin, 10 μg/ml aprotinin, 2 mM Na4P2O7, 2 mM Na3VO4, 2 mM NaF, and 1 μM microcystin, and then supplemented with 1% TritonX-100, 0.6% Nonidet and 150 mM NaCl.
β-Secretase Activity (BACE1; beta-site APP-cleaving enzyme-1). β-Secretase was measured was measured using a kit from Thermo-Fisher.

[1] = Het-MλKO mice, reported previously; cited from earlier work
aPKC = target: T1, aPKC (Mus musculus, UniProt Q62074); details: previously seen, stated as similar; read-out: IC50, inhibition of aPKC activity in mouse adipocytes; cited from earlier work
T1 construct: previously seen in isolated human hepatocytes, mouse adipocytes and recombinant PKC-λ/ι [8,16]; endogenous in cells; host or cells: isolated mouse adipocytes
T1 sequence (Q62074 2-595 limits assumed): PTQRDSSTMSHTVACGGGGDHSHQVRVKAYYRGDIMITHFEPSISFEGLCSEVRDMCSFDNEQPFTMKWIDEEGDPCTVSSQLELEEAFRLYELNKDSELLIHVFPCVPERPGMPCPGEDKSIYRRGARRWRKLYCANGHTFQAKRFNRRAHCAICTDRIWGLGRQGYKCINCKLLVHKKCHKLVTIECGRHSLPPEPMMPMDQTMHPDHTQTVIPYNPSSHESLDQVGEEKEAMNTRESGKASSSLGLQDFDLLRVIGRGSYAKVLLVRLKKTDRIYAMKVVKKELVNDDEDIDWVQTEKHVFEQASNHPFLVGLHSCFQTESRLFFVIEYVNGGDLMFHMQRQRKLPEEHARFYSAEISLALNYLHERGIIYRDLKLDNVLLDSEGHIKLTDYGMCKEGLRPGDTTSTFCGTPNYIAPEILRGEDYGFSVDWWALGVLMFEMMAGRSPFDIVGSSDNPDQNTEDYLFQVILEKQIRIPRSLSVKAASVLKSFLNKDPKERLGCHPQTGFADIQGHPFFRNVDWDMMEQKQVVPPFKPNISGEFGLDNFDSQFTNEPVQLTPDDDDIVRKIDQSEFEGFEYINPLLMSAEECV

## NC(=O)c1ncn([C@@H]2C[C@H](COP(=O)(O)O)[C@@H](O)[C@H]2O)c1N [ICAPP]
phospho-thr-231-tau
  effect on metformin-induced increase in phospho-thr-231-tau: dose-dependently inhibited
β-secretase (BACE1); Het-MλKO mice, ICAPP 0.4 mg/kg s.c. once daily for 8 days
  resting/basal brain β-secretase activity: reduced resting/basal β-secretase activity to near-normal levels
β-secretase (BACE1); Het-MλKO mice, ICAPP 0.4 mg/kg s.c. once daily for 8 days, insulin 1 U/kg i.p. 15 min
  acute insulin-stimulated increases in brain β-secretase activity: fully blocked
β-secretase (BACE1); normal mice, single s.c. dose of ICAPP 1.5 mg/kg, insulin 1 U/kg i.p. 15 min before killing
  insulin-dependent brain β-secretase activity: time-related, well-correlated decreases; also recorded: blocked acute effects of insulin
[1]
  serum insulin levels / hyperinsulinemia: fully/sufficiently improved; also recorded: reduced serum insulin levels in Het-MλKO mice to normal
aPKC
  IC50: 1 to 10 nM
